How the values were obtained:
[1] = biological target: T1, α2δ-subunit of a calcium channel (Sus scrofa, UniProt A0A287BIN3); test: radioligand binding assay using [3H]-gabapentin; details: α2δ-subunit derived from porcine brain tissue
T1 construct: the α2δ-subunit derived from porcine brain tissue was used; from tissue; host or cells: porcine brain tissue
Description: The ability of compounds of the present invention to bind to the α2δ-subunit of a calcium channel can be determined using the following binding assay.
The radioligand binding assay using [^3H]-gabapentin and the α2δ-subunit derived from porcine brain tissue was used. See Nicolas S. Gee et al., “The novel anticonvulsant drug, gabapentin (Neurontin), binds to the α2 subunit of a calcium channel,” J. Biol. Chem. 271 (10):5768-76 (1996). Compounds of the invention bind with nanomolar to micromolar affinity for the α2δ protein.

T1 sequence (A0A287BIN3 25-1109): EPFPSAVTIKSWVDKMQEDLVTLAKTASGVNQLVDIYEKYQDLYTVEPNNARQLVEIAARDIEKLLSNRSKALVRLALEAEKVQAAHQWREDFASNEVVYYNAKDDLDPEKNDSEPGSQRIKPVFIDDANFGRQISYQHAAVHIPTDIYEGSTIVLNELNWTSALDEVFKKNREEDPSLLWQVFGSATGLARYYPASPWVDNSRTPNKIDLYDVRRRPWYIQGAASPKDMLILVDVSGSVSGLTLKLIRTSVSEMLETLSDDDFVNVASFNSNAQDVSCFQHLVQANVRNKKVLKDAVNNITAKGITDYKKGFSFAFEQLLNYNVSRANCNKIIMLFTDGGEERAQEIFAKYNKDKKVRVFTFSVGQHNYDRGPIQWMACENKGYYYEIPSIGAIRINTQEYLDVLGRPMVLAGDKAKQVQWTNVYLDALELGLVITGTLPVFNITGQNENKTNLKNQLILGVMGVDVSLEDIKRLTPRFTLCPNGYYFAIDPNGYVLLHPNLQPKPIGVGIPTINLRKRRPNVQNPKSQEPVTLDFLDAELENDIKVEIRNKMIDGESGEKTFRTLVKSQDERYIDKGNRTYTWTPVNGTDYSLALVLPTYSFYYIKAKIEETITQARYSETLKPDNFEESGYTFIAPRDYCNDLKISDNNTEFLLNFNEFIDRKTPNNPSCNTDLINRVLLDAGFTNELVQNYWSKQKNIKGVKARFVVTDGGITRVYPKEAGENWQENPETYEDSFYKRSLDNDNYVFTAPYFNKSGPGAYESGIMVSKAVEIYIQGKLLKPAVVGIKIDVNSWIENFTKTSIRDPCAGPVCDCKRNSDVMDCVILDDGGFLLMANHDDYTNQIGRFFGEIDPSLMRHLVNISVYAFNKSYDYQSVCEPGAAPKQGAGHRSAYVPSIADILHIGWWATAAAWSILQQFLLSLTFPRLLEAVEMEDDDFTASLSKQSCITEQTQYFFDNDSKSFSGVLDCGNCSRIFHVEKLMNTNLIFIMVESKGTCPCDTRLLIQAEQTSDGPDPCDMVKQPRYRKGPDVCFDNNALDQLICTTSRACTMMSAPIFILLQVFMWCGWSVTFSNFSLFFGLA

SMILES	melting point	affinity to the α2δ protein [1]
CC[C@H](C)C[C@](C)(N)CC(=O)O	215 to 217 °C	–
CCCCC(CC)CCC(CN)C(=O)O (stereo not shown) [2-aminomethyl-5-ethyl-nonanoic acid]	–	75 nM
CC[C@@H](C)C[C@](C)(N)CC(=O)O [(3S,5R)-3-amino-3,5-dimethyl-heptanoic acid]	–	236 nM
CCC(CC)C[C@](C)(N)CC(=O)O [(S)-3-amino-5-ethyl-3-methyl-heptanoic acid]	–	149 nM

From patent publication US20050124668A1, “Amino acids with affinity for the alpha2delta-protein” (priority 2003, published 2005)
